Source: patent US4200650A, “2-Amino-cyclopent-1-ene-1-thiocarboxylic acid-disulfides to treat noradrenergic malfunctions” (Richter Gedeon Vegyeszeti Gyar Rt., priority 1976, dated 1980)

Legend:
[1] = tested on: dopamine-β-hydroxylase; test: Determination of noradrenaline and dopamine levels of brain (dopamine-β-hydroxylase inhibiting effect); type: in vivo, male Wistar rats; settings: ± standard error
Method: (§1) The dopamine-β-hydroxylase inhibiting effects of the new compounds according to the invention were examined by the following tests:
(§2) The tests were performed on male Wistar rats weighing 150 to 200 g. The dopamine-β-hydroxylase inhibiting effects of the compounds were evaluated by determining the change of noradrenaline, dopamine and adrenaline levels of the cerebrum, heart, spleen and adrenal gland. The serotonine and 5-hydroxy-indolylacetic acid levels of the cerebrum were also determined. The measurements were performed as follows:
(§3) The animals were decapitated, the cerebrum, heart, spleen and adrenal gland were removed quickly, and the organs were frozen by placing them onto a metal sheet cooled with dry ice. The frozen organs were stored for maximum one night at -20° C.
Determination of the noradrenaline, dopamine, serotonine and 5-hydroxy-indolylacetic acid contents of brain
The brains were homogenized in 10 parts by volume of 0.4 n perchloric acid. The homogenized mixture was stored at -20° C. overnight, thereafter it was thawed and centrifuged as described above. A sample of the homogenized mixture corresponding to 0.5 g of brain was removed, the pH of the sample was adjusted to 8.0±0.1 with 0.1 molar tris-buffer of the above composition, and the sample was processed as described above for the determination of the noradrenaline content of heart and spleen, with the difference that 1.5 ml of 0.05 n perchloric acid were applied as eluting agent. 0.5 ml of the eluate were applied to determine the noradrenaline and dopamine contents. The measurement was performed as described above, with the difference that samples of 0.5 ml were applied for the recording of the fluorescency of noradrenaline. The residua was placed for 50 minutes into a drying oven heated to 100° C., thereafter the sample was cooled with ice water, and the fluorescency of dopamine was recorded at wavelengths of 325 nm (excitation) and 380 nm (emission).
In a further test series the serotonine and 5-hydroxy-indolylacetic acid contents were also determined, beside the determination of the noradrenaline and dopamine content, from the same sample. In this instance the brains were homogenized in 10 ml of 75% ethanol, 0.2 ml of EDTA-Na2 and 5% of ascorbic acid were added to the homogenized mixtures, and the homogenized mixtures were maintained at -20° C. overnight. The mixtures were centrifuged as described above, and 5.0 ml samples of the supernatant were removed. The samples were diluted with equal volumes of distilled water, and poured onto ion exchange columns of 0.5×1.5 cm dimensions, filled with buffered Amberlite CG-30 (200 to 400 mesh). The columns were washed with 5 ml of distilled water followed by 1.0 ml of 0.2 n hydrochloric acid, and the first effluent and the aqueous wash were collected for the determination of 5-hydroxy-indolylacetic acid. Elution was continued with further 1.2 ml of 0.2 n hydrochloric acid in order to remove noradrenaline, dopamine and serotonine. Samples of 0.3 ml were used for the determinations.
Noradrenaline and dopamine were determined by the method of Shellenberger, modified as described above, whereas serotonine was determined by the method of Curzon et al. (Brit. J. Pharmacol. 39, 653/1970/). The basic method was modified as follows: A 0.5% solution of ortho-phthal(di)aldehyde in absolute ethanol was diluted with 10 n hydrochloric acid to 50-fold of its original volume, and 0.6 ml of the resulting 0.01% ortho-phthal(di)aldehyde solution were added immediately to 0.5 ml of the serotonine-containing sample. The sample was placed into a hot water bath for 10 minutes, thereafter cooled with tap water, and the fluorescency was recorded at wavelengths of 360 nm (excitation) and 490 nm (emission).
In the tests disulfiram, 2,2-dipyridyl, bis(1-methyl-4-homopiperazinyl-thriocaronyl)-disulfide, sodium diethyldithiocarbamate and N-phenyl-N'-(2-thiazolyl)-thiourea were applied as reference substances. […]

[2] = tested on: dopamine-β-hydroxylase; test: Determination of the adrenaline content of adrenal gland; type: in vivo, male Wistar rats; settings: ± standard error
Method: as §1, §2, §3
Determination of the adrenaline content of adrenal gland
The adrenal glands were freed from fat and homogenized in 3.0 ml of ice-cold 0.4 n perchloric acid. The homogenized mixtures were centrifuged for 10 minutes at 0° C. with a speed of 3200 r.p.m. using a Janetzky K-70 type centrifuge. 0.05 ml samples were taken from the supernatant, and the adrenaline level was determined directly by the method of Laverty et al. (Anal. Biochem. 22, 269/1968/).
(§4) In the tests disulfiram, 2,2-dipyridyl, bis(1-methyl-4-homopiperazinyl-thriocaronyl)-disulfide, sodium diethyldithiocarbamate and N-phenyl-N'-(2-thiazolyl)-thiourea were applied as reference substances. The values indicated in Table 1 are the percentages in relation to the amine levels of the controls measured in the same tests (± standard error). The statistical calculations were performed on a TPA/i type computer, using Student's t test.

[3] = tested on: dopamine-β-hydroxylase; test: Determination of the noradrenaline content of spleen; type: in vivo, male Wistar rats
Method: as §1, §2, §3
(§5) Determination of the noradrenaline content of heart and spleen
(§6) The organs were weighed in frozen state and then homogenized in 5.0 ml of 0.4 n perchloric acid containing 0.05% of EDTA-Naa and 0.1% of Na2 S2 O5. The homogenized mixtures were centrifuged as described above for the treatment of adrenal gland, the supernatants were decanted, and the pH was adjusted to 8.0±0.1 with a 0.1 molar tris buffer containing 20 g/l of NaOH and 25 g/l of EDTA-Na2. 100 mg of prepared Al2 O3 (Anton et al.: J. Pharm. Ther. 138, 360/1962/) were added to the samples, and the mixtures were shaken mechanically for 20 minutes. Thereafter Al2 O3 was washed with 2×10 ml of distilled water, and noradrenaline was eluted with 1.0 ml of 0.05 n perchloric acid. 0.5 ml samples of the eluate were applied for the determination of noradrenaline. Noradrenaline was determined according to the method of Shellenberger et al. (Anal. Biochem. 39, 356/1971/), with the following modifications of the basic procedure: 0.5 ml of 0.1 molar Na-K-phosphate buffer, containing 9 g/l of EDTA-Na2, were added to 0.5 ml of the eluate, and the catecholamines (noradrenaline in the examination of heart and spleen and noradrenaline and dopamine in the examination of the cerebrum) were oxidized with 0.1 ml of a 0.1 n iodine solution in 5% potassium iodide. After exactly 2 minutes oxidation was stopped by adding 0.25 ml of a 2.5% sodium sulfite solution in 4.4 n aqueous sodium hydroxide to the mixture. 2 minutes after the introduction of the alkaline sulfite solution 0.2 ml of concentrated acetic acid were added to the samples, upon which the pH decreased to 4.4 to 4.5 Thereafter the samples were placed for 5 minutes into a drying oven heated to 100° C., and then the samples were cooled with ice water. The fluorescency of noradrenaline was measured with an OPTON spectrophotometer at wavelengths of 380 nm (excitation) and 490 nm (emission).
as §4

[4] = tested on: dopamine-β-hydroxylase; test: Determination of the noradrenaline content of heart; type: in vivo, male Wistar rats; settings: ± standard error
Method: as §1, §2, §3, §5, §6, §4

[5] = tested on: dopamine-β-hydroxylase; settings: literature, cited from earlier work
[6] = i.p., 200 mg/kg, 4 hours, ± standard error
[7] = i.p., 200 mg/kg, 8 hours, ± standard error

## CCNC1=C(C(=S)SSC(=S)C2=C(NCC)CCC2)CCC1 [Compound M-6, 2-(N-ethyl)-amino-cyclopent-1-ene-thiocarboxylic acid-disulfide]
[1]; i.p., 100 mg/kg, 4 hours
  Brain DA (dopamine) level, percentages in relation to the controls: 99.0±5.22%
  Brain NA (noradrenaline) level, percentages in relation to the controls: 41.8±2.3%
[1]; i.p., 200 mg/kg, 4 hours
  Brain DA (dopamine) level, percentages in relation to the controls: 134.9±5.4%
  Brain NA (noradrenaline) level, percentages in relation to the controls: 34.4±2.6%
[1]; i.p., 200 mg/kg, 8 hours
  Brain DA (dopamine) level, percentages in relation to the controls: 121.7±6.1%
  Brain NA (noradrenaline) level, percentages in relation to the controls: 34.2±3.5%
[1]; p.o., 500 mg/kg, 4 hours
  Brain DA (dopamine) level, percentages in relation to the controls: 106.7±3.4%
  Brain NA (noradrenaline) level, percentages in relation to the controls: 83.9±4.8%
[1]; p.o., 500 mg/kg, 8 hours
  Brain DA (dopamine) level, percentages in relation to the controls: 92.6±4.0%
  Brain NA (noradrenaline) level, percentages in relation to the controls: 73.7±4.7%
[2]; i.p., 100 mg/kg, 4 hours
  Adrenal gland AD (adrenaline) level, percentages in relation to the controls: 123.4±4.6%
[2]; i.p., 200 mg/kg, 4 hours
  Adrenal gland AD (adrenaline) level, percentages in relation to the controls: 97.3±4.1%
[2]; i.p., 200 mg/kg, 8 hours
  Adrenal gland AD (adrenaline) level, percentages in relation to the controls: 79.0±3.9%
[2]; p.o., 500 mg/kg, 4 hours
  Adrenal gland AD (adrenaline) level, percentages in relation to the controls: 121.4±13.7%
[2]; p.o., 500 mg/kg, 8 hours
  Adrenal gland AD (adrenaline) level, percentages in relation to the controls: 107.5±8.9%
[3]; i.p., 100 mg/kg, 4 hours, ± standard error
  Spleen NA (noradrenaline) level, percentages in relation to the controls: 64.1±7.6%
[3]; [6]
  Spleen NA (noradrenaline) level, percentages in relation to the controls: 85.0±10.8%
[3]; [7]
  Spleen NA (noradrenaline) level, percentages in relation to the controls: 86.5±23.5%
[3]; p.o., 500 mg/kg, 4 hours, ± standard error
  Spleen NA (noradrenaline) level, percentages in relation to the controls: 125.4±12.4%
[3]; p.o., 500 mg/kg, 8 hours, ± standard error
  Spleen NA (noradrenaline) level, percentages in relation to the controls: 64.6±12.4%
[4]; i.p., 100 mg/kg, 4 hours
  Heart NA (noradrenaline) level, percentages in relation to the controls: 92.9±3.3%
[4]; i.p., 200 mg/kg, 4 hours
  Heart NA (noradrenaline) level, percentages in relation to the controls: 97.8±8.8%
[4]; i.p., 200 mg/kg, 8 hours
  Heart NA (noradrenaline) level, percentages in relation to the controls: 81.3±5.7%
[4]; p.o., 500 mg/kg, 4 hours
  Heart NA (noradrenaline) level, percentages in relation to the controls: 82.4±8.2%
[4]; p.o., 500 mg/kg, 8 hours
  Heart NA (noradrenaline) level, percentages in relation to the controls: 97.5±5.6%

## C=CCNC1=C(C(=S)SSC(=S)C2=C(NCC=C)CCC2)CCC1 [Compound M-7, 2-(N-allyl)-amino-cyclopent-1-ene-thiocarboxylic acid-disulfide]
[1]; i.p., 200 mg/kg, 4 hours
  Brain DA (dopamine) level, percentages in relation to the controls: 123.6±8.1%
  Brain NA (noradrenaline) level, percentages in relation to the controls: 50.5±5.2%
[1]; i.p., 200 mg/kg, 8 hours
  Brain DA (dopamine) level, percentages in relation to the controls: 104.7±5.7%
  Brain NA (noradrenaline) level, percentages in relation to the controls: 64.5±4.4%
[2]; i.p., 200 mg/kg, 4 hours
  Adrenal gland AD (adrenaline) level, percentages in relation to the controls: 93.3±8.0%
[2]; i.p., 200 mg/kg, 8 hours
  Adrenal gland AD (adrenaline) level, percentages in relation to the controls: 69.8±6.8%
[3]; [6]
  Spleen NA (noradrenaline) level, percentages in relation to the controls: 66.1±18.1%
[3]; [7]
  Spleen NA (noradrenaline) level, percentages in relation to the controls: 88.5±33.9%
[4]; i.p., 200 mg/kg, 4 hours
  Heart NA (noradrenaline) level, percentages in relation to the controls: 100.0±3.9%
[4]; i.p., 200 mg/kg, 8 hours
  Heart NA (noradrenaline) level, percentages in relation to the controls: 91.8±3.7%

## CN1CCCN(C(=S)SSC(=S)N2CCCN(C)CC2)CC1 [FLA-63, bis(1-methyl-4-homopiperazinyl)-thiocarbonyl-disulfide, reference compound]
[5]; in vivo
  dopamine-β-hydroxylase inhibition under in vivo conditions, in words: one of the most potent dopamine-β-hydroxylase inhibitors under in vivo conditions
[1]; i.p., 50 mg/kg, 4 hours
  Brain DA (dopamine) level, percentages in relation to the controls: 118%
  Brain NA (noradrenaline) level, percentages in relation to the controls: 24.6%
[2]; i.p., 50 mg/kg, 4 hours
  Adrenal gland AD (adrenaline) level, percentages in relation to the controls: 43%
[3]; i.p., 50 mg/kg, 4 hours
  Spleen NA (noradrenaline) level, percentages in relation to the controls: 58%
[4]; i.p., 50 mg/kg, 4 hours
  Heart NA (noradrenaline) level, percentages in relation to the controls: 96%

## CCCCc1ccc(C(=O)O)nc1 [Fusaric acid, 5-butyl-picolinic acid]
[5]
  dopamine-β-hydroxylase inhibiting effects, in words: strong dopamine-β-hydroxylase inhibiting effects

## NNc1nncc2ccccc12 [Hydralazine]
[5]
  dopamine-β-hydroxylase inhibiting effects, in words: possess dopamine-β-hydroxylase inhibiting effects

## O=C(CO)c1coc(=O)c2c(O)cccc12 [Oosponol]
[5]
  dopamine-β-hydroxylase inhibiting effects, in words: strong dopamine-β-hydroxylase inhibiting effects

## CC(N)Cc1ccccc1 (stereo not drawn) [amphetamine]
[5]
  dopamine-β-hydroxylase inhibiting effects, in words: possess dopamine-β-hydroxylase inhibiting effects

## NNCc1ccccc1 [benzylhydrazine]
[5]
  dopamine-β-hydroxylase inhibiting effects, in words: exert dopamine-β-hydroxylase inhibiting effects
  duration of activity, in words: exert their activities for a short period

## NOCc1ccccc1 [benzyloxyamine]
[5]
  dopamine-β-hydroxylase inhibiting effects, in words: exert dopamine-β-hydroxylase inhibiting effects
  duration of activity, in words: exert their activities for a short period

## CCN(CC)C(=S)S [diethyl dithiocarbamate]
[5]
  dopamine-β-hydroxylase inhibiting effects, in words: strong dopamine-β-hydroxylase inhibiting effects

## Cn1cc[nH]c1=S [methimazol]
[5]
  dopamine-β-hydroxylase inhibiting effects, in words: possess dopamine-β-hydroxylase inhibiting effects
